Test results: ChEMBL document CHEMBL4414660, “Effect of Modifier Structure on the Activation of Leukotriene A4 Hydrolase Aminopeptidase Activity” (J Med Chem, 2019)
One block for each molecule: values may come before it. Activity calls are given as the source filed them. No cut-off for these calls is given here.

Columns and labels:
Neutrophil = assay: Inhibition of LTB4 production in A23187-stimulated human neutrophils at 0.001 to 1000 microM incubated for 30 mins by ELISA; type: functional, cell-based
[1] = target: T1, Leukotriene A-4 hydrolase (Homo sapiens, UniProt P09960); assay: Inhibition of N-terminal (His)6 and Xpress-tagged LTA4H (unknown origin) expressed in Escherichia coli BL21(DE3) cells assessed as reduction in aminopeptidase activity by measuring p-nitroanilide release using L-Alanine-p-nitroanilide incubated for 10 mins by UV plate reader based assay
T1 sequence (P09960 whole entry): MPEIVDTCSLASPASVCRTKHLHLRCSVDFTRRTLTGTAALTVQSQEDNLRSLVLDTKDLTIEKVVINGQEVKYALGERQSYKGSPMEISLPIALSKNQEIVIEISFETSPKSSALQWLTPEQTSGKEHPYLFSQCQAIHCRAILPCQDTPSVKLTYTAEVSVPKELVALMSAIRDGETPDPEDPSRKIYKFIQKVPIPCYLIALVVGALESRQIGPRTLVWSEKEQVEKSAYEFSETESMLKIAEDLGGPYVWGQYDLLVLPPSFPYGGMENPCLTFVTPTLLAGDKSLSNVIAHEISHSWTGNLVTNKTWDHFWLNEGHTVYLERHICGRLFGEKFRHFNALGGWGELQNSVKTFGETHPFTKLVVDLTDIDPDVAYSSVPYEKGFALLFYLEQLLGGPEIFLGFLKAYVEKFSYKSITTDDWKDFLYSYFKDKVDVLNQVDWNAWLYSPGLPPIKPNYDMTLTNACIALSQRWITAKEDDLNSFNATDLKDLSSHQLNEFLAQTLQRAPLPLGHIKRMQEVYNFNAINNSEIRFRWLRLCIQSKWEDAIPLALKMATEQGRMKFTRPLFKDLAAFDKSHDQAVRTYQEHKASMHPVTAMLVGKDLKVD

[2] = target: T1, Leukotriene A-4 hydrolase; assay: Activation of N-terminal (His)6 and Xpress-tagged LTA4H (unknown origin) expressed in Escherichia coli BL21(DE3) cells assessed as increase in aminopeptidase activity by measuring p-nitroanilide release using L-Alanine-p-nitroanilide incubated for 10 mins by UV plate reader based assay
[3] = target: T2, Leukotriene A-4 hydrolase (Homo sapiens) (UniProt P09960); assay: (§1) Activation of N-terminal (His)6 and Xpress-tagged LTA4H (unknown origin) expressed in Escherichia coli BL21(DE3) cells assessed as increase in aminopeptidase activity by measuring dissociation constant (KX) for hyperbolic mixed predominantly catalytic activation using L-Alanine-p-nitroanilide incubated for 10 mins by p-nitroanilide release detection based UV plate reader based assay
T2 sequence (whole entry): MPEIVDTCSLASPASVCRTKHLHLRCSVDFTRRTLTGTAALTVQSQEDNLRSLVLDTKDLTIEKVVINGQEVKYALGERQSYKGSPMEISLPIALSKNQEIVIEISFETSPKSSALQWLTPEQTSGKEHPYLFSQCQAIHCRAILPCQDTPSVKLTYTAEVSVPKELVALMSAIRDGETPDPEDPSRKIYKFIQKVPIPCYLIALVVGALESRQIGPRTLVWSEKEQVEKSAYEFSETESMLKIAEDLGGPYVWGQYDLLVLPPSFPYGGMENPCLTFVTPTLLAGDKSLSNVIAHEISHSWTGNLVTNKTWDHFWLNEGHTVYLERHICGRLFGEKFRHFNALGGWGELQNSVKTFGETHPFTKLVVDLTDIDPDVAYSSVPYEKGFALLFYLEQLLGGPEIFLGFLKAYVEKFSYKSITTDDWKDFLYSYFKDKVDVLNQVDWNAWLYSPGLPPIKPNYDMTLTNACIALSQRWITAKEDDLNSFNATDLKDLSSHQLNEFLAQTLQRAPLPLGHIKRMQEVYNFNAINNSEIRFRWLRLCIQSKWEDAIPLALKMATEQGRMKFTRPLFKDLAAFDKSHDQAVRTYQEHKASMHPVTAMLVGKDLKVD

[4] = target: T2, Leukotriene A-4 hydrolase (Homo sapiens); assay: as §1, with “factor by which activator affects catalytic” for “dissociation”, “constant” for “constant (KX)”
[5] = target: T2, Leukotriene A-4 hydrolase (Homo sapiens); assay: as §1, with “reciprocal allosteric coupling” for “dissociation”, “constant” for “constant (KX)”

Structure (SMILES): CC(C)C[C@H](NC(=O)[C@@H](O)[C@H](N)Cc1ccccc1)C(=O)O
inhibition (Neutrophil): Active

IC50 [1]: 8.35 µM
Structure (SMILES): Nc1nc(-c2ccc(Cc3ccccc3C(F)(F)F)cc2)cs1

AC50 [2]: 1.39 µM
K [3]: 9.6 µM
fold change (FC) [4]: 21.4
K [5]: 9.51
Structure (SMILES): Nc1nc(-c2ccc(Cc3ccc(C(F)(F)F)cc3)cc2)cs1
